This assay deals with T1, AKT1-E17K (Homo sapiens, UniProt P31749, E17K).
T1 construct: host or cells: HEK-293 (ATCC CRL-1573)
Briefly: NanoBRET Target Engagement (TE) Assay. Type of assay: cell-based. The settings on record: full length AKT E17K NanoLuc fusion in transfected HEK-293 cells; 2 hr equilibration with tracer and compound. The source says:
NanoBRET is a highly specific and validated cell-based technique for assessing target engagement (Vasta et al., 2018, Cell Chem Biol. 25(2):206-214). The NanoBRET™ Target Engagement (TE) Intracellular Kinase Assays are based on the NanoBRET™ System (Promega Corporation), an energy transfer technique designed to measure molecular proximity in living cells. The NanoBRET™ TE Assays measure the apparent affinity of test compounds by competitive displacement of the NanoBRET™ tracer compound, which is a cell permeable molecule engineered to be reversibly bound to a NanoLuc® luciferase-kinase fusion expressed in cells. For compound screening, when a test compound binds to the selected kinase, the BRET signal is attenuated. For kinase inhibitors in particular, intracellular target selectivity is fundamental to pharmacological mechanism and allows the proteins of interest to be in the correct cellular confirmation. Although non-cell-based techniques have been developed to measure kinase binding or enzymatic inhibition with accuracy and precision, such approaches can fail to accurately predict engagement of the full-length target protein in the more complex and biologically relevant cellular context (Knight and Shokat, 2005, Chem. Biol. 12, 621-637; Smyth and Collins, 2009, J. Chem. Biol. 2, 131-151). […] Briefly, HEK-293 cells (ATCC Cat #CRL-1573) were used for transfection purposes using FuGENE HD Transfection Reagent (Promega Cat #E2311). All cells were evaluated for viability prior to transfection and optimization of the transfection was done prior to experimentation. Greater than 95% viability was used for all experiments. Following transfection, cells were washed and resuspended in Opti-MEM. NanoBRET assays were performed in white, 384-well plates (Corning) at a density of 2×10^5 cells/well. All example compounds were prepared as concentrated stock solutions in DMSO (Sigma-Aldrich). Compounds are dissolved in DMSO to make 10 mM stock solution. Example compounds were transferred as 40 μL of 10 mM stock solution to a 384 pp-plate (LABCYTE, PP-0200) and diluted in 3-fold, 10-point dilution via transferring […] by Apricot liquid handler. A Labcyte ECHO 550 compound dispenser was used to facilitate compound transfer directly to cells. Cells were equilibrated for 2 hr with energy transfer probes and example compound prior to BRET measurements. The AKTE17K (Promega Cat #NV2421) as well as specific probe (NanoBRET tracer, Promega Cat #N264B) was prepared at a concentration of 20× in tracer dilution buffer (12.5 mM HEPES, 31.25% PEG-400, pH 7.5). For target engagement analysis, the energy transfer probes were added to the cells at concentrations optimized for the target in question (AKT E17K). Following compound incubation, NanoBRET NanoGlo Substrate (Promega Cat #N157D) and Extracellular Nanoluc Inhibitor (Promega Cat #N235C) was added according to the manufacturer's recommended protocol, and luminescence was measured on Envision Reader (Perkin Elmer) Multimode Luminometer equipped with 450 nmBPfilter (donor) and 600 nmLPfilter (acceptor), using 0.5 s integration time. Milli-BRET units (mBU) are calculated by multiplying the raw BRET values by 1000. Apparent tracer affinity values (EC50) were determined using the sigmoidal dose-response (variable slope). Competitive displacement data were then plotted and data were fit to determine the EC50 value for each example compound.

T1 sequence (P31749 whole entry E17K): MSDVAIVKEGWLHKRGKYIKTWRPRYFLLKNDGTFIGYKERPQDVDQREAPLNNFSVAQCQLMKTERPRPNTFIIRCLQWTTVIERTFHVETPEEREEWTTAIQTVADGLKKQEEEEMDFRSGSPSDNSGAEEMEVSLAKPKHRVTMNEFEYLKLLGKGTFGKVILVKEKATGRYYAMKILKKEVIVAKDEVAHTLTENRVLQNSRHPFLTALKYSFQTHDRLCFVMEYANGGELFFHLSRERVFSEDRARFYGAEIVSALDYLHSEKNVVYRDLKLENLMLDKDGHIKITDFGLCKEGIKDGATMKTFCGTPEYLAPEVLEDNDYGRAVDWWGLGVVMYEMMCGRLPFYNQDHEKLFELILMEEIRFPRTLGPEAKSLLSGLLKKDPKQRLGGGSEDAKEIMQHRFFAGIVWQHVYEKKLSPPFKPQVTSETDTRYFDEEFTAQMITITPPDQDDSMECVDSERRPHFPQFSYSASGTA

By IC50 is commonly meant the point on the concentration scale where inhibition reaches its midpoint. Compound `N#CN1CCC2(CCN(Cc3ccc(-n4c(-c5cccnc5N)nc5ccc(-c6ccccc6)nc54)cc3)C2)C1` (centres unmarked) [Example 19, 7-(4-(2-(2-Aminopyridin-3-yl)-5-phenyl-3H-imidazo[4,5-b]pyridin-3-yl)benzyl)-2,7-diazaspiro[4.4]nonane-2-carbonitrile] came in with a 50% inhibitory concentration (IC50) of 15 to 60 nM. The figure for `N#CN[C@@H]1CCN(Cc2ccc(-n3c(-c4cccnc4N)nc4ccc(-c5ccccc5)nc43)cc2)C1` [Example 10, (R)—N-(1-(4-(2-(2-Aminopyridin-3-yl)-5-phenyl-3H-imidazo[4,5-b]pyridin-3-yl)benzyl)pyrrolidin-3-yl)cyanamide] is below 15 nM. The figure for `N#CN1CCC2(C1)CN(Cc1ccc(-n3c(-c4cccnc4N)nc4ccc(-c5ccccc5)nc43)cc1)C2` [Example 38, 2-(4-(2-(2-Aminopyridin-3-yl)-5-phenyl-3H-imidazo[4,5-b]pyridin-3-yl)benzyl)-2,6-diazaspiro[3.4]octane-6-carbonitrile] is below 15 nM; for `N#CN1CCCN(Cc2ccc(-n3c(-c4cccnc4N)nc4ccc(-c5ccccc5)nc43)cc2)CC1` [Example 12, 4-(4-(2-(2-Aminopyridin-3-yl)-5-phenyl-3H-imidazo[4,5-b]pyridin-3-yl)benzyl)-1,4-diazepane-1-carbonitrile] it is 60 to 600 nM. With `N#CNC1CCN(Cc2ccc(-n3c(-c4cccnc4N)nc4ccc(-c5ccccc5)nc43)cc2)CC1` [Example 3, N-(1-(4-(2-(2-Aminopyridin-3-yl)-5-phenyl-3H-imidazo[4,5-b]pyridin-3-yl)benzyl)piperidin-4-yl)cyanamide] the figure was below 15 nM; with `N#CNN1CCN(Cc2ccc(-n3c(-c4cccnc4N)nc4ccc(-c5ccccc5)nc43)cc2)CC1` [Example 42, N-(4-(4-(2-(2-Aminopyridin-3-yl)-5-phenyl-3H-imidazo[4,5-b]pyridin-3-yl)benzyl)piperazin-1-yl)cyanamide], below 15 nM; with `N#CN1CCC2(CC1)CCN(Cc1ccc(-n3c(-c4cccnc4N)nc4ccc(-c5ccccc5)nc43)cc1)C2` [Example 20, 2-(4-(2-(2-Aminopyridin-3-yl)-5-phenyl-3H-imidazo[4,5-b]pyridin-3-yl)benzyl)-2,8-diazaspiro[4.5]decane-8-carbonitrile], 15 to 60 nM. `N#CN1C[C@@H]2C[C@H]1CN2Cc1ccc(-n2c(-c3cccnc3N)nc3ccc(-c4ccccc4)nc32)cc1` [Example 34, (1S,4S)-5-(4-(2-(2-Aminopyridin-3-yl)-5-phenyl-3H-imidazo[4,5-b]pyridin-3-yl)benzyl)-2,5-diazabicyclo[2.2.1]heptane-2-carbonitrile] returned an IC50 of 60 to 600 nM. The figure for `N#CN1CCN(Cc2ccc(-n3c(-c4cccnc4N)nc4ccc(-c5ccccc5)nc43)cc2)CC12CC2` [Example 33, 7-(4-(2-(2-Aminopyridin-3-yl)-5-phenyl-3H-imidazo[4,5-b]pyridin-3-yl)benzyl)-4,7-diazaspiro[2.5]octane-4-carbonitrile] is 60 to 600 nM; for `N#CN1C[C@H]2C[C@@H]1CN2Cc1ccc(-n2c(-c3cccnc3N)nc3ccc(-c4ccccc4)nc32)cc1` [Example 35, (1R,4R)-5-(4-(2-(2-Aminopyridin-3-yl)-5-phenyl-3H-imidazo[4,5-b]pyridin-3-yl)benzyl)-2,5-diazabicyclo[2.2.1]heptane-2-carbonitrile] it is 60 to 600 nM; for `N#CNC1CCN(Cc2ccc(-n3c(-c4cccnc4N)nc4cc(-c5ccccc5)cnc43)cc2)CC1` [Example 11, N-(1-(4-(2-(2-Aminopyridin-3-yl)-6-phenyl-3H-imidazo[4,5-b]pyridin-3-yl)benzyl)piperidin-4-yl)cyanamide] it is 60 to 600 nM. Take `N#CNC1CCN(Cc2ccc(-n3c(-c4cccnc4N)nc4cccnc43)cc2)CC1` [Example 1, N-(1-(4-(2-(2-Aminopyridin-3-yl)-3H-imidazo[4,5-b]pyridin-3-yl)benzyl)piperidin-4-yl)cyanamide]: the IC50 is above 600 nM. In turn, `CC(=O)Nc1cccc(-c2ccc3nc(-c4cccnc4N)n(-c4ccc(CN5CCC(NC#N)CC5)cc4)c3n2)c1` [Example 4, N-(3-(2-(2-Aminopyridin-3-yl)-3-(4-((4-cyanamidopiperidin-1-yl)methyl)phenyl)-3H-imidazo[4,5-b]pyridin-5-yl)phenyl)acetamide] had an IC50 below 15 nM. With `CN(C#N)C1CCN(Cc2ccc(-n3c(-c4cccnc4N)nc4ccc(-c5ccccc5)nc43)cc2)CC1` [Example 14, N-(1-(4-(2-(2-Aminopyridin-3-yl)-5-phenyl-3H-imidazo[4,5-b]pyridin-3-yl)benzyl)piperidin-4-yl)-N-methylcyanamide] the figure was 15 to 60 nM; with `N#CN1CC2(C1)CN(Cc1ccc(-n3c(-c4cccnc4N)nc4ccc(-c5ccccc5)nc43)cc1)C2` [Example 5, 6-(4-(2-(2-Aminopyridin-3-yl)-5-phenyl-3H-imidazo[4,5-b]pyridin-3-yl)benzyl)-2,6-diazaspiro[3.3]heptane-2-carbonitrile], 15 to 60 nM; with `N#CN1CC[C@@]2(CCN(Cc3ccc(-n4c(-c5cccnc5N)nc5ccc(-c6ccccc6)nc54)cc3)C2)C1` [Example 23, (R)-7-(4-(2-(2-Aminopyridin-3-yl)-5-phenyl-3H-imidazo[4,5-b]pyridin-3-yl)benzyl)-2,7-diazaspiro[4.4]nonane-2-carbonitrile], below 15 nM. The figure for `N#CN1CCC2(CCN(Cc3ccc(-n4c(-c5cccnc5N)nc5ccc(-c6ccccc6)nc54)cc3)CC2)C1` [Example 16, 8-(4-(2-(2-Aminopyridin-3-yl)-5-phenyl-3H-imidazo[4,5-b]pyridin-3-yl)benzyl)-2,8-diazaspiro[4.5]decane-2-carbonitrile] is below 15 nM. The figure for `[2H]C([2H])([2H])N(C#N)C1CCN(Cc2ccc(-n3c(-c4cccnc4N)nc4ccc(-c5ccccc5)nc43)cc2)CC1` [Example 41, N-(1-(4-(2-(2-Aminopyridin-3-yl)-5-phenyl-3H-imidazo[4,5-b]pyridin-3-yl)benzyl)piperidin-4-yl)-N-(methyl-d3)cyanamide] is 15 to 60 nM; for `N#CN1CCC2(CC1)CN(Cc1ccc(-n3c(-c4cccnc4N)nc4ccc(-c5ccccc5)nc43)cc1)C2` [Example 22, 2-(4-(2-(2-Aminopyridin-3-yl)-5-phenyl-3H-imidazo[4,5-b]pyridin-3-yl)benzyl)-2,7-diazaspiro[3.5]nonane-7-carbonitrile] it is 60 to 600 nM; for `N#CN[C@H]1CCCN(Cc2ccc(-n3c(-c4cccnc4N)nc4ccc(-c5ccccc5)nc43)cc2)C1` [Example 6, (S)—N-(1-(4-(2-(2-Aminopyridin-3-yl)-5-phenyl-3H-imidazo[4,5-b]pyridin-3-yl)benzyl)piperidin-3-yl)cyanamide] it is 15 to 60 nM.

(Values after US20260193274A1, “AKT1 MODULATORS” (Alterome Therapeutics, Inc., priority 2022, published 2026).)
